# Measurements published in PMC7249060, “The Antiproliferative Effects of Flavonoid MAO Inhibitors on Prostate Cancer Cells” (Molecules, 2020).
# Columns and labels:
# LNCaP cells [1] = experiment: Antiproliferation screen assay, resazurin, 72 h; format: cell-based, human; conditions: 50 μM
# Protocol: (§1) In this screen, we examined the growth inhibitory effects of all synthesized KKRs on the three human PCa cell lines LNCaP, DU145, and PC3. The antiproliferative clinical drug TAX of 0.25 μM was used as a positive control. Additionally, different standards of MAO-Is and FLUT were tested for their effect on the LNCaP cells. Briefly, the procedures and materials used were the same as for the viability assay except for the following—cultured cells were seeded at 10,000 cells/175-µL/well related experimental media, and the resazurin solution was added after 72 h of incubation with the compounds of 50 μM each.
# hMAO-A = biological target: T1, hMAO-A (Homo sapiens, UniProt P21397); experiment: Michaelis–Menten kinetics / mode of inhibition (MAO-Glow, LDS substrate); format: biochemical; conditions: for Alpha parameter (mixed model of enzyme inhibition): GraphPad Prism mixed model; for mode of hMAO-A inhibition: Lineweaver–Burk, alpha analysis; for Vmax of hMAO-A with increasing inhibitor (minimum and maximum average means): inhibitor 0 to IC50 × 4
# T1 construct: purchased Sigma-Aldrich Co. (St. Louis, MO, USA)
# T1 sequence (P21397 1-527): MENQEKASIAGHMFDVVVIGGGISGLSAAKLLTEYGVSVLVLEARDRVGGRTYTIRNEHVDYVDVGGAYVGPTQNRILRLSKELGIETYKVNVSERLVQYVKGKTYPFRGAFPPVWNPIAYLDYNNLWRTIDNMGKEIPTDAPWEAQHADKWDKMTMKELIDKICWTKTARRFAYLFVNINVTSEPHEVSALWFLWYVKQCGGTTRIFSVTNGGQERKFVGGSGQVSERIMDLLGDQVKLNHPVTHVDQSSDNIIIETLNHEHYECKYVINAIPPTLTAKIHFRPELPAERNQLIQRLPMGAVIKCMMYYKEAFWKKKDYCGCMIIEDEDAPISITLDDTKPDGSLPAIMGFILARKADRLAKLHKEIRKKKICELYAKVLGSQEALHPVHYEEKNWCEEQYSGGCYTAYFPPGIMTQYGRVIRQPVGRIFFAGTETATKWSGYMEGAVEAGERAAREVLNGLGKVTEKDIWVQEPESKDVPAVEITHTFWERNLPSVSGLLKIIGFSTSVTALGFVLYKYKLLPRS
# Protocol: The hMAO-A modes of inhibition by KKR21 and KKR11 were investigated using the Michaelis–Menten reaction kinetics and MAO-Glow™ assay. A negative control buffer and seven serially diluted LDS concentrations were prepared from a maximum final of 75 μM. Other negative control buffers and three different concentrations of each KKR were prepared to resemble IC50/4, IC50, and IC50 × 4 final concentrations (final KKR11 of 0.08, 0.31, and 1.24 μM, and final KKR21 of 0.005, 0.019, and 0.076 μM, respectively). Each KKR was mixed with the isozyme in a 2:1 ratio volume for a final concentration of 0.44 U/mL. The reactions were initiated by adding 37.5 μL of the prepared mixture to 12.5 μL LDS substrate in the 96-well plates. Opaque plates were incubated at 37 °C for 60 min. The enzymatic reaction was terminated by adding 50 μL RLDR to the plates and then was re-incubated for 30 min at RT. The generated ALU was read on the Bio-Tek Synergy HTX Multi-Reader.
# The Vmax and Km were calculated from the averaged X and Y intercepts of Lineweaver–Burk (LWB) linear regressions that were analyzed from the Michaelis–Menten curve data. Vmax = 1/Y-intercept, Km = −1/X-intercept(2)
# Inhibitor-constant (Ki) was calculated from Cheng–Prosuff’s equation Ki (comp) = IC50/(1+[S]/Km)(3)
# DU145 cells = experiment: Antiproliferation screen assay, resazurin, 72 h; format: cell-based, human; conditions: 50 μM
# Protocol: as §1
# PC3 cells = experiment: Antiproliferation screen assay, resazurin, 72 h; format: cell-based, human; conditions: 50 μM
# Protocol: as §1
# LNCaP cells [2] = experiment: Viability screen assay, resazurin, 24 h; format: cell-based, human; conditions: 50 μM, 90% viability as margin of cytotoxicity
# Protocol: We examined the cytotoxic effects of all 20 synthesized KKRs on the three human PCa cell lines LNCaP, DU145, and PC3, after a 24 h exposure period. Non-toxic TAX was used for comparison. Briefly, cultured cells were seeded in black transparent bottom 96-well microplates at 50,000 cells/175-µL/well in experimental media (RPMI1640 for LNCaP, EMEM for DU145, and DMEM/F12K for PC3), supplied with 5% FBS and 1% P/S. Wells of media without cells were considered blanks and negative controls. The plates were incubated overnight at 37 °C in 5% CO2 to allow cell attachment. For each compound, a working solution of 8X KKR in sterile […] HEPES in HBSS pH buffer of 7.4 was prepared for a final concentration of 50 μM each. The three attached cell types were treated immediately with the related buffer being added to the control wells. A sterile fluorescence-based solution of the resazurin reagent of 0.5 mg/mL in HBSS was prepared. After 24 h, the cells were exposed to 15% v/v of the sterile resazurin reagent, and the plates were re-incubated for 4.5 h to allow redox reaction. All plates were read under 530/590-nm excitation/emission wavelengths using Bio-Tek Synergy HTX Multi-reader as a microplate fluorescence reader.
# [3] = competitive model, Ki = IC50/(1 + [S]/Km)
Structure (SMILES),antiproliferative effect in screen (LNCaP cells [1]),Ki (hMAO-A; Cheng–Prosuff's equation),Alpha parameter (mixed model of enzyme inhibition) (hMAO-A),mode of hMAO-A inhibition (hMAO-A),Ki (hMAO-A; [3]),Vmax of hMAO-A with increasing inhibitor (minimum and maximum average means) (hMAO-A),antiproliferative effect in screen (DU145 cells),antiproliferative effect in screen (PC3 cells),cytotoxicity / cell viability (LNCaP cells [2])
"O=C(/C=C/c1ccccc1)c1cc(Cl)cc(Cl)c1O [KKR20, (E)-1-(3,5-dichloro-2-hydroxyphenyl)-3-phenylprop-2-en-1-one]",top five KKRs that kept standing out with antiproliferative effects,–,–,–,–,–,–,–,–
"O=c1cc(-c2ccccc2)oc2cc(Cl)c(Cl)cc12 [KKR21, 6,7-dichloro-2-phenyl-4H-chromen-4-one]",no effects on any of the screened PCa cell models,≤ 7.4 nM,>>1,reversible competitive inhibition,1.7 nM,1.38 × 10^−6–1.43 × 10^−6 U/mL/h,no effects on any of the screened PCa cell models,no effects on any of the screened PCa cell models,–
"O=c1c(O)c(-c2ccccc2)oc2c(Cl)cc(Cl)cc12 [KKR7, 6,8-dichloro-3-hydroxy-2-phenyl-4H-chromen-4-one]",–,–,–,–,–,–,top effective,–,affected the LNCaP cells
"COc1cc(OC)c2c(=O)c(O)c(/C=C/c3cc(OC)c(OC)c(OC)c3)oc2c1 [KKR2A, (E)-3-hydroxy-5,7-dimethoxy-2-(3,4,5-trimethoxystyryl)-4H-chromen-4-one]",no effects on any of the screened PCa cell models,–,–,–,–,–,no effects on any of the screened PCa cell models,no effects on any of the screened PCa cell models,–
"COc1cc(O)c(C(=O)/C=C/c2ccc(Cl)c(Cl)c2)c(OC)c1 [KKR11, (E)-3-(3,4-dichlorophenyl)-1-(2-hydroxy-4,6-dimethoxyphenyl)prop-2-en-1-one]",top five KKRs that kept standing out with antiproliferative effects,≤ 7.4 nM,>>1,reversible competitive inhibition,7.4 nM,3 × 10^−6–4 × 10^−6 U/mL/h,top effective,–,–
